PMC11436758, “Computer-aided drug design to generate a unique antibiotic family” (Nature Communications, 2024)
Converted amounts (≈) assume the structure as drawn. “And” between values parts separate entries of the source, which are not always exact repeats. Identical values can stand only once.

Tests used:
AcpS^H-/108A = target: T1, AcpS^H-/108A (Escherichia coli, UniProt P24224, H108A); assay: Inhibition of purified AcpS site-directed mutant by DNM0547; assay type: biochemical, E. coli; conditions: for AcpS rate nM/min, Mean / AcpS rate: Suppl Fig 3, [AcpS_H108A] 5nM; for AcpS rate: replicates
T1 construct: 6x-His (C); made in house

[1] = system: 102 ATCC strains and clinical isolates of Staphylococcus, Streptomyces, and Enterococcus; assay: MIC panel summary over all strains; assay type: cell-based; conditions: of the seven strains above 2 μg/mL
Experimental: We also sought to determine if DNM0547 was bacteriostatic or bactericidal. Time kill experiments were carried out using increasing doses of DNM0547 against two different strains of MRSA.
The medium employed for the assay was Mueller Hinton II Broth (MHB II; Becton-Dickinson, Sparks, MD, USA). Agar plates used for the organisms were trypticase soy agar plus 5% sheep blood (BD; Sparks, MD, USA). MIC assay plates were prepared using the CLSI broth microdilution procedure. Automated liquid handlers (Multidrop 384, Biomek 2000 and Biomek FX) were used to conduct serial dilutions and liquid transfers. A standardized inoculum of each organism was prepared per CLSI methods. Suspensions were prepared to equal a 0.5 McFarland standard, followed by a 1:20 dilution in test media. The inocula were dispensed into sterile reservoirs divided by length (Beckman Colter) and the Biomek 2000 was used to inoculate the plates. Daughter plates were placed on the Biomek 2000 work surface in reverse orientation so that inoculation took place from low to high drug concentration. The Biomek 2000 delivered 10 μL of the diluted suspension into each well. These inoculations yielded a final cell concentration in the daughter plates of ~5 × 10^5 colony-forming units/mL in each well. The wells of the daughter plates ultimately contained 185 μL of broth, 5 μL of drug solution, and 10 μL of bacterial inoculum. Plates were covered with a sterile lid on the top plate, placed in plastic bags, and incubated at 35 °C for ~18 h. The microplates were viewed from the bottom using a plate viewer and the MIC was read. The MIC was recorded as the lowest concentration of drug that inhibited visible growth of the organism.

[2] = system: E. coli D22 over-expressing AcpS; assay: MIC upon IPTG-induced over-expression of MBP-AcpS (MBP only as control); assay type: cell-based
From the text: Over-expression of AcpS was confirmed by western blot (Supplementary Fig. 6b). This is consistent with inhibition of AcpS being the major mechanism of action for the antimicrobial activity of DNM0547.
Supplementary Figure 6. Increased expression of AcpS increases the MIC of DNM0547. a , the minimum inhibitory concentration (MIC; µg/ml) of the D22 strain of E. coli upon expression of plasmid borne maltose binding protein (MBP) AcpS from an IPTG inducible promoter versus just over-expression of MBP only. The D22 strain of E. coli has a porous outer membrane due to a point mutation in the lpxC gene enabling some compounds to enter the cell that can not permeate wild type E. coli. AcpS is expressed as a fusion with MBP. MICs were determined upon IPTG induction of MBP-AcpS with expression of just MBP used as control. b, western blot against MBP (New England Biolabs E8032S, 1:1000 dilution) to assess expression; IPTG induced expression of MBP and MBP-AcpS at the expected M Wts. c, equal protein was added from each E. coli protein extract used for the western blot. Ponceau stain of the membrane to assess protein loading and transfer.
(also on this page, place not known: DH5a BL 21 D 22 pMAL pMAL pAcpS pAcpS pMAL pMAL pAcpS pAcpS pMAL + pMAL pAcpS + pAcpS - - + - + - + - + - a, AcpS MBP M Compound MBP MBP-AcpS DNM0547 32 256) […]

T1 sequence (P24224 whole entry H108A): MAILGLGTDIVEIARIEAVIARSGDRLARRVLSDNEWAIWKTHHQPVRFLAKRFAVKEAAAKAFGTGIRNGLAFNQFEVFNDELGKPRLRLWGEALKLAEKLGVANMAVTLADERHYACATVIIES

Compound: CC(C)c1cc(Cl)ccc1-c1cc(-c2nnn[nH]2)c(-c2ccc(Cl)cc2C(C)C)s1 [DNM0547]
- IC50 (AcpS^H-/108A): 5.6 µM
- AcpS rate nM/min, Mean (AcpS^H-/108A; Drug Conc 1 uM): 7.81 nM/min
- AcpS rate (AcpS^H-/108A; Drug Conc 1 uM): 7.96 nM/min and 7.81 nM/min and 7.64 nM/min
- AcpS rate nM/min, Mean (AcpS^H-/108A; Drug Conc 2 uM): 6.86 nM/min
- AcpS rate (AcpS^H-/108A; Drug Conc 2 uM): 6.91 nM/min and 7.01 nM/min and 6.66 nM/min
- AcpS rate nM/min, Mean (AcpS^H-/108A; Drug Conc 4 uM): 4.72 nM/min
- AcpS rate (AcpS^H-/108A; Drug Conc 4 uM): 4.74 nM/min and 4.76 nM/min and 4.66 nM/min
- AcpS rate nM/min, Mean (AcpS^H-/108A; Drug Conc 8 uM): 3.23 nM/min
- AcpS rate (AcpS^H-/108A; Drug Conc 8 uM): 2.93 nM/min and 3.30 nM/min and 3.44 nM/min
- AcpS rate nM/min, Mean (AcpS^H-/108A; Drug Conc 16 uM): 2.83 nM/min
- AcpS rate (AcpS^H-/108A; Drug Conc 16 uM): 3.20 nM/min and 2.39 nM/min and 2.90 nM/min
- AcpS rate nM/min, Mean (AcpS^H-/108A; Drug Conc 32 uM): 1.69 nM/min
- AcpS rate (AcpS^H-/108A; Drug Conc 32 uM): 1.65 nM/min and 1.74 nM/min and 1.68 nM/min
- AcpS rate nM/min, Mean (AcpS^H-/108A; Drug Conc 64 uM): 1.60 nM/min
- AcpS rate (AcpS^H-/108A; Drug Conc 64 uM): 1.52 nM/min and 1.63 nM/min and 1.65 nM/min
- AcpS rate nM/min, Mean (AcpS^H-/108A; Drug Conc 128 uM): 1.34 nM/min
- AcpS rate (AcpS^H-/108A; Drug Conc 128 uM): 1.38 nM/min and 1.44 nM/min and 1.20 nM/min
- remaining activity at 1 µM (AcpS^H-/108A; read-out: % of untreated, Suppl Fig 3, [AcpS_H108A] 5nM, Drug Conc 1 uM, replicates): 105%
- remaining activity at 2 µM (AcpS^H-/108A; read-out: % of untreated, Suppl Fig 3, [AcpS_H108A] 5nM, Drug Conc 2 uM, replicates): 90.9%
- remaining activity at 4 µM (AcpS^H-/108A; read-out: % of untreated, Suppl Fig 3, [AcpS_H108A] 5nM, Drug Conc 4 uM, replicates): 62.4%
- remaining activity at 8 µM (AcpS^H-/108A; read-out: % of untreated, Suppl Fig 3, [AcpS_H108A] 5nM, Drug Conc 8 uM, replicates): 38.5%
- remaining activity at 16 µM (AcpS^H-/108A; read-out: % of untreated, Suppl Fig 3, [AcpS_H108A] 5nM, Drug Conc 16 uM, replicates): 42.1%
- remaining activity at 32 µM (AcpS^H-/108A; read-out: % of untreated, Suppl Fig 3, [AcpS_H108A] 5nM, Drug Conc 32 uM, replicates): 21.7%
- remaining activity at 64 µM (AcpS^H-/108A; read-out: % of untreated, Suppl Fig 3, [AcpS_H108A] 5nM, Drug Conc 64 uM, replicates): 20%
- remaining activity at 128 µM (AcpS^H-/108A; read-out: % of untreated, Suppl Fig 3, [AcpS_H108A] 5nM, Drug Conc 128 uM, replicates): 18.1%
- number of strains with MIC 4 μg/mL [1]: four
- number of strains with MIC 8 μg/mL [1]: two
- number of strains with MIC 32 μg/mL [1]: one
- MIC ([2]; E. coli D22, IPTG-induced MBP only (control)): 32 µg/mL (≈ 70 µM)
- MIC ([2]; E. coli D22, IPTG-induced MBP-AcpS): 256 µg/mL (≈ 560 µM)
- MIC ([2]; Escherichia coli, E. coli D22 with over-expression of AcpS): 256 µg/mL (≈ 560 µM)
- MIC ([2]; Escherichia coli, Suppl Fig 6a, MBP (control), replicates): 32 µg/mL (≈ 70 µM)
- MIC ([2]; Escherichia coli, Suppl Fig 6a, MBP-AcpS, replicates): 256 µg/mL (≈ 560 µM)
- MIC ([2]; Suppl Fig 6a, MBP (control), replicates): 32 µg/mL (≈ 70 µM)
- MIC ([2]; Suppl Fig 6a, MBP-AcpS, replicates): 256 µg/mL and >256 µg/mL
